Laboratory results: patent US7982057B2, “Compound of stemphones and production thereof” (The Kitasato Institute, priority 2006, dated 2011)
Values after ≈ are worked out from the molar mass of the structure shown.

How the values were obtained:
[1] = Solubility in solvent; assay type: physicochemical
[2] = tested on: Jurkat cells; test: Cytotoxicity on Jurkat cells by MTT method; assay type: cell-based; details: Homo sapiens, 48 hours
Experimental: Method for Evaluation of Cytotoxicity
Evaluation of cytotoxicity on Jurkat cells were performed by MTT method (Mosmaan, et al. J. Immunol. Methods, 65: 55-63, 1983). Cultured liquid of Jurkat cells were suspended in RPMI-1640 medium (Iwaki & Co., Ltd., Japan) to give suspension with 4×10^5 cells/ml, and the suspension 0.05 ml was seeded in each well of 96 well microplate (Corning Corp.). Subsequently, stemphone D substance, stemphone E substance, stemphone E1 substance, stemphone E2 substance, stemphone E3 substance or stemphone F substance (0.05 ml, 2% methanol/PRMI-1640 medium) was added and incubated at 37° C. for 48 hours in 5% carbon dioxide gas incubator. Then MTT reagent (SIGMA Inc.) dissolved in PBS to give concentration 5.5 mg/ml, 0.01 ml was added and reacted at 37° C. for 4 hours. After the reaction was performed, cell-lysing solution (40%, N-dimethylformamide (Kanto Chemical Co., Inc., Japan), 20% sodiumdodecyl sulfate (Wako Pure Chemical Industries, Ltd., Japan) 2% acetic acid (Kanto Chemical Co., Inc., Japan), 0.03% hydrochloric acid (Kanto Chemical Co., Inc., Japan) in purified water) 0.09 ml was added, and stirred at room temperature for 2 hours, then absorption at 550 nm was measured by using ELx 808 (BIO-TEK Instruments Inc.). As compared with stemphone C substance previously reported by the present inventor (ratio: 1.0), about 4-fold to 60-fold reduction of toxicity were confirmed.

[3] = tested on: methicillin resistant Staphylococcus aureus K24; test: Enhancing effect for activity of imipenem by paper disk method; assay type: cell-based; details: 10 μg disc, 37° C. for 20 hours; for inhibitory zone in the presence of imipenem: MHA medium with imipenem final concentration 10 μg/ml; for inhibitory zone, substance alone: MHA medium without imipenem
Experimental: Biological properties of compound of stemphones of the present invention are described in detail as follows. Method for evaluation of enhancing effect for activity of imipenem by paper disk method
Clinically isolated strain of methicillin resistant Staphylococcus aureus K24 was used as a test organism. Staphylococcus aureus was cultured in Mueller-Hinton broth (2.1% w/v) (DIFCO) at 37° C. for 20 hours, and was suspended corresponding to 0.5 Mc FARLAND (about 10^8 CFU/ml) in the same medium.
Smearing was performed by using sterilized cotton swab (Kawamoto Sangyo K.K., Japan) according to a method of National Committee for Laboratory Standard, NCCLS, U.S.A. Antibacterial activities against test organism on various media were expressed with a unit in mm of a diameter of inhibition zone after incubation with the paper disc (thin disc, […], ADVANTEC Inc.) method at 37° C. for 20 hours.

SMILES	Solubility in methanol and chloroform [1]	Solubility in water [1]	IC50 [2] [µg/mL]	inhibitory zone in the presence of imipenem [3] [mm]	inhibitory zone, substance alone [3]
C/C=C(\C)C(OC(C)=O)C(C)C1=CC(=O)C2=C(OC3(C)CCC4OC(C(C)(C)O)CC(O)C4(C)C3=C2)C1=O (stereo not drawn) [stemphone E3 substance]	Soluble	insoluble	2.6 (≈ 4.92 µM)	20	not observed
C/C=C(\C)C(OC(C)=O)C(C)C1=CC(=O)C2=C(OC3(C)CCC4OC(C(C)(C)O)CC(O)C4(C)C3C2)C1=O (stereo not drawn) [stemphone D substance]	Soluble	insoluble	1.8 (≈ 3.39 µM)	25	not observed
C/C=C(\C)C(OC(C)=O)C(C)C1=CC(=O)C2=C(OC3(C)CCC4OC(C(C)(C)O)CC(O)C4(C)C3C2O)C1(O)CC(C)=O (stereo not drawn) [stemphone F substance]	Soluble	insoluble	2.7 (≈ 4.46 µM)	20	not observed
C/C=C(\C)C(OC(C)=O)C(C)c1cc(O)c2c(c1O)OC1(C)CCC3OC(C(C)(C)O)CC(O)C3(C)C1C2O (stereo not drawn) [stemphone E substance]	Soluble	insoluble	3.6 (≈ 6.56 µM)	22	not observed
C/C=C(\C)C(OC(C)=O)C(C)c1cc(OC)c2c(c1O)OC1(C)CCC3OC(C(C)(C)O)CC(O)C3(C)C1C2O (stereo not drawn) [stemphone E1 substance]	Soluble	insoluble	26.2 (≈ 46.6 µM)	15	not observed
C/C=C(\C)C(OC(C)=O)C(C)c1cc(O)c2c(c1O)OC1(C)CCC3OC(C(C)(C)O)CC(O)C3(C)C1=C2 (stereo not drawn) [stemphone E2 substance]	Soluble	insoluble	4.4 (≈ 8.29 µM)	22	not observed
